# Reference: US12186304B2, “Method for treating cancer by combination of IAP inhibitor and modulator of immune checkpoint molecule” (ASCENTAGE PHARMA (SUZHOU) CO., LTD., priority 2018, dated 2025)
# Legend:
# [1] = system: CT26 colorectal cancer; assay: Combination therapy in CT26 mouse colorectal cancer model; format: in vivo; conditions: for T/C (%) value on day 18 after administration: APG-1387 0.2 mg/kg i.v. once daily, docetaxel 8 mg/kg i.p. once weekly, anti-PD-1 200 μg/mouse i.p. twice weekly
# Experimental: Cell inoculation method was used to establish a […] tumor-immunized normal mouse subcutaneous homograft tumor model: tumor cells in logarithmic growth phase were collected, counted, and then resuspended in 1×PBS. The concentration of the cell suspension was adjusted to 2.5-5×10^7/mL. Tumor cells, 5-10×10^6/0.2 mL/mouse, were inoculated subcutaneously in the right back of the immunized normal mouse with a 1 mL syringe ([…]). All animal experimental operations were strictly in accordance with standards for use and management of laboratory animals by Gima Gene Co., Ltd and Suzhou Yasheng Pharmaceutical Co., Ltd. Relevant parameters were calculated with reference to China's NMPA “Guidelines for Non-clinical Research Techniques of Cytotoxic Antitumor Drugs”.
# Animal weight and tumor size were measured twice a week during the experiment. Animals were observed daily for status and the occurrence of death. Routine monitoring included the effects of tumor growth and treatment on the normal behaviors of animals, specifically including the activity, feeding and drinking, weight gain or loss, eyes, clothing hair, as well as other abnormalities of the laboratory animals. The deaths and clinical symptoms observed during the experiment were recorded in the original data. The whole process of administration, measurement of mouse weight and tumor volume was carried out in an ultra-clean bench. According to requirements of the experimental program, plasma and tumor tissue were collected, weighed and photographed for record after the end of last administration. Plasma and tumor samples were frozen at −80° C. for later use.
# Tumor volume (TV) was calculated as TV=a×b^2/2, wherein a and b represented the length and width of tumor measurement, respectively.
# Relative tumor volume (RTV) was calculated as RTV=Vt/V1, wherein V1 was the tumor volume at the time of grouping administration, and Vt was the tumor volume measured on day t after administration.
# The evaluation index of anti-tumor activity was relative tumor proliferation rate T/C (%), and was calculated as: relative tumor proliferation rate T/C (%)=(TRTV/CRTV)×100%, wherein TRTV was RTV in treatment group, and CRTV was RTV in vehicle control group.
# Tumor remission rate (%) was the number of SD (stable disease), PR (partial regression) and CR (complete regression) in tumor-bearing mice after treatment divided by the total number of mice in that group×100%. CR refers to the complete regression of the tumor, which means the tumor is inaccessible after treatment. PR refers to the partial regression of the tumor, which means tumor volume becomes smaller than before treatment. SD refers to stable tumor progression, which means tumor volume is the same as before treatment. Change of body weight (%)=(measurement of body weight−body weight when grouping)/body weight when grouping×100%.
# Efficacy evaluation criteria: according to China's NMPA “Guidelines for Non-clinical Research Techniques of Cytotoxic Antitumor Drugs” (November 2006), T/C (%) value 40% and p<0.05 by statistical analysis were considered as efficacious. If the weight loss of mice exceeded 20%, or the drug-related death percentage exceeded 20%, the drug dose was considered to be severely toxic.
# According to Clarke R., Issues in experimental design and endpoint analysis in the study of experimental cytotoxic agents in vivo in breast cancer and other models [J].
# A tumor model of CT26 colorectal cancer mouse was established, and the combined anti-tumor effect of APG-1387 with anti-PD-1 antibody and docetaxel was evaluated on this model. The administration regimen was as follows:
# APG-1387 monotherapy group: 0.2 mg/kg, intravenous injection, once daily for a total of 17 days;
# Docetaxel monotherapy group: 8 mg/kg, intraperitoneal injection, once weekly for a total of 17 days;
# Anti-PD-1 antibody monotherapy group: 200 μg/mouse, intraperitoneal injection, twice weekly for a total of 2.5 weeks (i.e., 17 days); […]
# [2] = system: murine A20 lymphoma cells; assay: Subcutaneous xenograft model of murine A20 lymphoma; format: in vivo, female BALB/c mice; conditions: A20 s.c.
# Experimental: • (1) APG-1387: provided by Jiangsu Ascentage Pharmaceutical Development Co., Ltd. The batch number is R12JA076140-A2 and PAPG-1387-DP-201305A. Preserved at 4° C., away from the light and sealed. APG-1387 was administered intravenously (i.v.) or intraperitoneally (i.p.) or at a dosage of 10 mL/kg. APG-1387 was dissolved in 5% castor oil/10% PEG400/85% normal saline. • (2) Anti-PD-1 antibody: purchased from BioXcell. The article number is BE0146 and BE0273. Preserved at 4° C. and sealed. The anti-PD-1 antibody was administered intraperitoneally at a concentration of 100 μg per mice or 200 μg per mice. • (3) Isotype control (anti-IgG): purchased from BioXcell, the product number is BE0089. Preserved at 4° C. and sealed. […]
# The mice were injected subcutaneously with 0.5-10×10^6 cells or in the ovary with 6×10^6 cells in situ to build the tumor xenograft model. […] For the orthotopic model, tumor growth was measured by examining in vivo fluorescence images 10 days after inoculation. […] Body weight and tumor size were measured twice per week during the experiment. […]
# The calculation of tumor related parameters is the same as set forth in Example 1. Using the fluorescence imaging technique, the strength of the fluorescent signal can represent the growth and metastasis of tumors in vivo. […]
structure (smiles),measurement,setting,value
"CC(=O)O[C@@]12CO[C@@H]1C[C@H](O)[C@@]1(C)C(=O)[C@H](O)C3=C(C)[C@@H](OC(=O)[C@H](O)[C@@H](NC(=O)OC(C)(C)C)c4ccccc4)C[C@@](O)([C@@H](OC(=O)c4ccccc4)[C@H]21)C3(C)C [Docetaxel, docetaxel]",T/C (%) value on day 18 after administration,[1],66%
same,T/C (%) value on day 18 after administration,[1]; listed as docetaxel,66%
same,Tumor remission rate on day 18 after administration (%),[1]; day 18,25%
same,Tumor remission rate on day 18 after administration: animals with SD/PR/CR per animals in group,[1]; day 18,1/4 SD
same,Tumor remission rate on day 18 after administration: animals with SD/PR/CR per animals in group,"[1]; day 18, listed as docetaxel",¼
same,anti-tumor effect on the 24th day after administration,[2],not significant
